Test results: patent US12209102B2, “Heterocyclic compounds and uses thereof” (Kumquat Biosciences Inc., priority 2022, dated 2025)

What was measured:
K-Ras G12D = molecular target: T1, K-Ras G12D (Homo sapiens, UniProt P01116, G12D); assay: HTRF resonance energy transfer assay, K-Ras G12D / SOS1 interaction; assay type: biochemical; conditions: HTRF assay of Example 5; read-out: IC50 against K-Ras G12D
T1 construct: made in house; host or cells: E. coli BL21 (DE3)
How it was run: (§1)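 GST-tagged K-Ras (WT or mutant) bound to anti-GST-Eu donor was mixed with His-hSOS1 bound to anti-6His-XL665 acceptor in ~5 mM HEPES pH 7.4, 150 mM NaCl, 1 mM DTT, 0.05% BSA, 0.0025% Igepal. HTRF (ex 337, em 620/665 nm) was read after ~10 min or longer. IC50 came from the 665/620 ratio over duplicates from 10 μM to 0.01 μM.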

K-Ras G12S = molecular target: T2, K-Ras G12S (Homo sapiens, UniProt P01116, G12S); assay: HTRF resonance energy transfer assay, K-Ras G12S / SOS1 interaction; assay type: biochemical; conditions: HTRF assay of Example 5; read-out: IC50 against K-Ras G12S
T2 construct: made in house; host or cells: E. coli BL21 (DE3)
How it was run: as §1

K-Ras G12V = molecular target: T3, K-Ras G12V (Homo sapiens, UniProt P01116, G12V); assay: HTRF resonance energy transfer assay, K-Ras G12V / SOS1 interaction; assay type: biochemical; conditions: HTRF assay of Example 5; read-out: IC50 against K-Ras G12V
T3 construct: made in house; host or cells: E. coli BL21 (DE3)
How it was run: as §1

K-Ras WT = molecular target: T4, K-Ras WT (Homo sapiens, UniProt P01116); assay: HTRF resonance energy transfer assay, K-Ras WT / SOS1 interaction; assay type: biochemical; conditions: HTRF assay of Example 5; read-out: IC50 against K-Ras WT
T4 construct: made in house; host or cells: E. coli BL21 (DE3)
How it was run: as §1

GP2D cells = assay: Ras cellular assay, growth of cells with K-Ras G12D mutation (CellTiter-Glo); assay type: cell-based; conditions: cell growth, Example 9, G12D mutation, read-out: IC50 against GP2D cells
SW620 cells = assay: Ras cellular assay, growth of cells with K-Ras G12V mutation (CellTiter-Glo); assay type: cell-based; conditions: Homo sapiens, SW-620; cell growth, Example 9, G12V mutation; read-out: IC50 against SW620 cells
How it was run: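 SW620 (K-Ras G12V) cells, e.g. 800/well in RPMI-1640 with 10% heat-inactivated FBS on standard or ultra-low attachment plates, were dosed the day after plating with e.g. a 10-point 3-fold series. Viability by CellTiter-Glo luminescence about 6 days later; IC50 from four-parameter fit.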

T4 sequence (P01116 1-188 isoform P01116-2): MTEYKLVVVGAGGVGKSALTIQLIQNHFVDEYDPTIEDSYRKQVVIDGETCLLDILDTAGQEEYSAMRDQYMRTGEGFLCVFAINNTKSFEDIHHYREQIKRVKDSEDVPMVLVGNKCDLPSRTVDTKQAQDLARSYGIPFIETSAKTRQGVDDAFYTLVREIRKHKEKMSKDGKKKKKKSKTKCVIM
T3 sequence (P01116 1-188 isoform P01116-2 G12V): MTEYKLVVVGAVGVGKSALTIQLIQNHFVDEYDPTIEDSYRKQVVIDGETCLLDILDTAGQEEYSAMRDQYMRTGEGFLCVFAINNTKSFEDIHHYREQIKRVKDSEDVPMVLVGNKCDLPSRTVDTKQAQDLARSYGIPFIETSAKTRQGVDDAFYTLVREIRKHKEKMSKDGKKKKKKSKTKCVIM
T1 sequence (P01116 1-188 isoform P01116-2 G12D): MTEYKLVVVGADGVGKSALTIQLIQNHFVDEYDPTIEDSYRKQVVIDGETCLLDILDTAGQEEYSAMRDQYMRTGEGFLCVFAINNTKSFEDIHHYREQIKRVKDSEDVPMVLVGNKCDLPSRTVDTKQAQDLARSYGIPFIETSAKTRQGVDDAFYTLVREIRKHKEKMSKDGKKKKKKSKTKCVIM
T2 sequence (P01116 1-188 isoform P01116-2 G12S): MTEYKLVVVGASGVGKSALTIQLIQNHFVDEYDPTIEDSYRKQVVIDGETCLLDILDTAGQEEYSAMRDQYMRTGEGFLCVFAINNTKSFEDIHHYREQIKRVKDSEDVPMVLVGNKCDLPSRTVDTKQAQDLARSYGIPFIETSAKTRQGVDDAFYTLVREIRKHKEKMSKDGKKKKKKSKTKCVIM

| IC50 (K-Ras G12D) [nM] | IC50 (K-Ras G12S) [nM] | IC50 (K-Ras G12V) [nM] | IC50 (K-Ras WT) [nM] | IC50 (SW620 cells) [nM] | SMILES | IC50 (GP2D cells) [nM] |
| --- | --- | --- | --- | --- | --- | --- |
| < 100 | < 100 | < 100 | < 100 | < 5000 | N#Cc1c(N)sc2c(F)ccc(-c3c(Cl)c4c5c(nc(OC[C@@]67CCCN6C[C@H](F)C7)nc5c3F)N[C@@H](C(F)F)CO4)c12 [Compound 618, 2-amino-4-((R)-8-chloro-5-(difluoromethyl)-10-fluoro-2-(((2R,7aS)-2-fluorotetrahydro-1H-pyrrolizin-7a(5H)-yl)methoxy)-5,6-dihydro-4H-[1,4]oxazepino[5,6,7-de]quinazolin-9-yl)-7-fluorobenzo[b]thiophene-3-carbonitrile] | < 500 |
| < 100 | < 100 | < 100 | < 100 | < 5000 | C[C@@H]1CCOc2c(Cl)c(-c3ccc(F)c4sc(N)c(C#N)c34)c(F)c3nc(OC[C@@]45CCCN4C[C@H](F)C5)nc(c23)N1 [Compound 1219, 2-amino-4-((5R)-9-chloro-11-fluoro-2-(((2R,7aS)-2-fluorotetrahydro-1H-pyrrolizin-7a(5H)-yl)methoxy)-5-methyl-4,5,6,7-tetrahydro-[1,5]oxazocino[4,3,2-de]quinazolin-10-yl)-7-fluorobenzo[b]thiophene-3-carbonitrile] | < 500 |
| < 100 | < 100 | < 100 | < 100 | < 5000 | COCCN1c2nc(OC[C@@]34CCCN3C[C@H](F)C4)nc3c(F)c(-c4ccc(F)c5sc(N)c(C#N)c45)c(Cl)c(c23)OC[C@@H]1CNC=O [Compound 607, N-(((5S)-9-(2-amino-3-cyano-7-fluorobenzo[b]thiophen-4-yl)-8-chloro-10-fluoro-2-(((2R,7aS)-2-fluorotetrahydro-1H-pyrrolizin-7a(5H)-yl)methoxy)-4-(2-methoxyethyl)-5,6-dihydro-4H-[1,4]oxazepino[5,6,7-de]quinazolin-5-yl)methyl)formamide] | < 500 |
| < 100 | < 100 | < 100 | < 100 | < 5000 | N#Cc1c(N)sc2c(F)ccc(-c3c(Cl)c4c5c(nc(OC[C@@]67CCCN6C[C@H](F)C7)nc5c3F)N(CCC(F)F)[C@@H](C3(O)CC3)CO4)c12 [Compound 986, 2-amino-4-((R)-8-chloro-4-(3,3-difluoropropyl)-10-fluoro-2-(((2R,7aS)-2-fluorotetrahydro-1H-pyrrolizin-7a(5H)-yl)methoxy)-5-(1-hydroxycyclopropyl)-5,6-dihydro-4H-[1,4]oxazepino[5,6,7-de]quinazolin-9-yl)-7-fluorobenzo[b]thiophene-3-carbonitrile] | < 500 |
| < 100 | < 100 | < 100 | < 100 | < 5000 | C[C@H]1C(C(F)F)Oc2c(Cl)c(-c3ccc(F)c4sc(N)c(C#N)c34)c(F)c3nc(OC[C@@]45CCCN4C[C@H](F)C5)nc(c23)N1CC(F)F (stereo partly drawn) [Compound 723, 2-amino-4-((5S)-8-chloro-4-(2,2-difluoroethyl)-6-(difluoromethyl)-10-fluoro-2-(((2R,7aS)-2-fluorotetrahydro-1H-pyrrolizin-7a(5H)-yl)methoxy)-5-methyl-5,6-dihydro-4H-[1,4]oxazepino[5,6,7-de]quinazolin-9-yl)-7-fluorobenzo[b]thiophene-3-carbonitrile] | < 500 |
| < 100 | < 100 | < 100 | < 100 | < 5000 | CC(C)(O)[C@H]1COc2c(Cl)c(-c3ccc(F)c4sc(N)c(C#N)c34)c(F)c3nc(OC[C@@]45CCCN4C[C@H](F)C5)nc(c23)N1 [Compound 815, 2-amino-4-((5R)-8-chloro-10-fluoro-2-(((2R,7aS)-2-fluorotetrahydro-1H-pyrrolizin-7a(5H)-yl)methoxy)-5-(2-hydroxypropan-2-yl)-5,6-dihydro-4H-[1,4]oxazepino[5,6,7-de]quinazolin-9-yl)-7-fluorobenzo[b]thiophene-3-carbonitrile] | < 500 |
| < 100 | < 100 | < 100 | < 100 | < 5000 | N#Cc1c(N)sc2c(F)ccc(-c3c(Cl)c4c5c(nc(OC[C@@]67CCCN6C[C@H](F)C7)nc5c3F)N(CC3CC3C#N)[C@@H](C3(O)CC3)CO4)c12 (stereo partly drawn) [Compound 876, 2-amino-4-((5R)-8-chloro-4-((2-cyanocyclopropyl)methyl)-10-fluoro-2-(((2R,7aS)-2-fluorotetrahydro-1H-pyrrolizin-7a(5H)-yl)methoxy)-5-(1-hydroxycyclopropyl)-5,6-dihydro-4H-[1,4]oxazepino[5,6,7-de]quinazolin-9-yl)-7-fluorobenzo[b]thiophene-3-carbonitrile] | < 500 |
| < 100 | < 100 | < 100 | < 100 | < 5000 | N#Cc1c(N)sc2c(F)ccc(-c3c(Cl)c4c5c(nc(OC[C@@]67CCCN6C[C@H](F)C7)nc5c3F)N(CCC(F)F)[C@@H](C3CC3)CO4)c12 [Compound 668, 2-amino-4-((S)-8-chloro-5-cyclopropyl-4-(3,3-difluoropropyl)-10-fluoro-2-(((2R,7aS)-2-fluorotetrahydro-1H-pyrrolizin-7a(5H)-yl)methoxy)-5,6-dihydro-4H-[1,4]oxazepino[5,6,7-de]quinazolin-9-yl)-7-fluorobenzo[b]thiophene-3-carbonitrile] | < 500 |
| < 100 | < 100 | < 100 | < 100 | < 5000 | CC(O)C1COc2c(Cl)c(-c3ccc(F)c4sc(N)c(C#N)c34)c(F)c3nc(OC[C@@]45CCCN4C[C@H](F)C5)nc(c23)N1CCN(C)C (stereo partly drawn) [Compound 745, 2-amino-4-(8-chloro-4-(2-(dimethylamino)ethyl)-10-fluoro-2-(((2R,7aS)-2-fluorotetrahydro-1H-pyrrolizin-7a(5H)-yl)methoxy)-5-(1-hydroxyethyl)-5,6-dihydro-4H-[1,4]oxazepino[5,6,7-de]quinazolin-9-yl)-7-fluorobenzo[b]thiophene-3-carbonitrile] | < 500 |
| < 100 | < 100 | < 100 | < 100 | < 5000 | C[C@H](O)[C@H]1[C@@H](C)Oc2c(Cl)c(-c3ccc(F)c4sc(N)c(C#N)c34)c(F)c3nc(OC[C@@]45CCCN4C[C@H](F)C5)nc(c23)N1CC(F)F [Compound 911, 2-amino-4-((5S,6R)-8-chloro-4-(2,2-difluoroethyl)-10-fluoro-2-(((2R,7aS)-2-fluorotetrahydro-1H-pyrrolizin-7a(5H)-yl)methoxy)-5-((S)-1-hydroxyethyl)-6-methyl-5,6-dihydro-4H-[1,4]oxazepino[5,6,7-de]quinazolin-9-yl)-7-fluorobenzo[b]thiophene-3-carbonitrile] | < 500 |
| < 100 | < 100 | < 100 | < 100 | < 5000 | N#Cc1c(N)sc2c(F)ccc(-c3c(Cl)c4c5c(nc(OC[C@@]67CCCN6C[C@H](F)C7)nc5c3F)N(CCC(F)F)[C@@H](CNC=O)CO4)c12 [Compound 614, N-(((5S)-9-(2-amino-3-cyano-7-fluorobenzo[b]thiophen-4-yl)-8-chloro-4-(3,3-difluoropropyl)-10-fluoro-2-(((2R,7aS)-2-fluorotetrahydro-1H-pyrrolizin-7a(5H)-yl)methoxy)-5,6-dihydro-4H-[1,4]oxazepino[5,6,7-de]quinazolin-5-yl)methyl)formamide] | < 500 |
